Data set [1] deals with patients with HR+, HER2- or HER2+ metastatic breast cancer. The experiment in a line: Patient disposition and dose adjustments. Conditions: Part G, with abemaciclib and fulvestrant.
Data set [2] relates to PIK3CA-mutated, HR+, HER2- ABC. Details: method as in doi:10.1158/1538-7445.SABCS23-GS03-13. Conditions: with fulvestrant and palbociclib, first-line treatment; cited from earlier work.
The subject of data set [3] is HR+ advanced breast cancer. Also noted: method as in PMID 32887722. Conditions: in combination with ribociclib and fulvestrant; cited from earlier work.
Data set [4] in a line: Plasma pharmacokinetics, noncompartmental analysis (LC-MS/MS). The class given is in vivo, human. On the procedure:
In parts E, F, and H, PK sampling was performed for all analytes pre-dose on Cycle 1 Day 1, Cycle 1 Day 15, and Cycle 2 Day 1, as well as at 1, 2, 4, 6, 8, and 10 hours after dosing on Cycle 1 Day 1 and Cycle 2 Day 1. In Part H, PK sampling was performed for all analytes pre-dose on Cycle 1 Day 1, Cycle 1 Day 15, and Cycle 2 Day 1, as well as at 1, 2, 4, 6, 8, and 10 hours after dosing on Cycle 1 Day 1 and 2, 4, 6, 8, and 10 hours after dosing on Cycle 2 Day 1. In Parts F and H, additional samples were drawn pre-dose on Day 1 of Cycles 3–5 and after trastuzumab infusion on Day 1 of Cycles 1–5. In part H, additional samples were also drawn after pertuzumab infusion on Day 1 Cycle 4 and 5. In Part G, an additional pre-dose sample was drawn on Cycle 3 Day 1, and fulvestrant samples were obtained pre-dose on Day 1 of Cycles 1–3 and Day 15 of Cycle 1.
Samples were analyzed for abemaciclib (and its metabolites), exemestane, everolimus, fulvestrant, LY3023414, and pertuzumab using a validated liquid chromatography-tandem mass spectrometry method (abemaciclib and metabolites: Q^2 solutions, Ithaca, NY, USA; exemestane and everolimus: BASi, West Lafayette, IN, USA; fulvestrant: Charles River Laboratories, Montreal, Quebec, Canada; LY3023414: Covance Laboratories Inc, Madison, WI, USA; pertuzumab: Altasciences Company Inc., Quebec, Canada). Trastuzumab was analyzed using a validated Gyrolab xP method (PPD, Richmond, VA, USA).
Standard noncompartmental PK parameters were computed using Phoenix WinNonlin 64 Build 8.0/8.1 (Pharsight Corporation, Mountain View, CA, USA). This analysis included estimation of Cmax, tmax, Clast, tlast, and AUC0-tlast. AUC calculations were performed using the log linear trapezoidal method.

In another data set the test system is HER2+ breast cancer. Conditions: abemaciclib combined with fulvestrant and trastuzumab versus standard of care chemotherapy plus trastuzumab; cited from earlier work.

Here are results for five compounds from paper PMC11937066, “Abemaciclib in combination with therapies for patients with metastatic breast cancer: a phase 1b study” (Frontiers in Oncology, 2025).

Like-named read-outs stand apart in the source and are kept apart here.

The term Cmax denotes the maximum level reached in the sampled fluid or tissue.

In the case of `CO[C@@H](C)Cn1c(=O)n(C)c2cnc3ccc(-c4cncc(C(C)(C)O)c4)cc3c21` [LY3023414], the “Additional patients who discontinued LY3023414 due to AEs” value in data set [1] is on record as “two”. Further, in data set [1] (12 patients), the LY3023414 dose adjustments worked out at 10 patients, the LY3023414 dose omission entry is recorded as “eight” and the LY3023414 dose reduction entry is “seven”.
As to `C[C@H](Nc1ccc2c(c1)OCCn1cc(N3C(=O)OC[C@H]3C(F)F)nc1-2)C(N)=O` [inavolisib], the Progression-free survival entry in data set [2] is “statistically significant improvement”.
Regarding `Nc1cc(C(F)(F)F)c(-c2cc(N3CCOCC3)nc(N3CCOCC3)n2)cn1` [buparlisib], the “Feasibility of the combination” value in data set [3] was “not to be feasible due to toxicity”.
As for `Cc1nc(NC(=O)N2CCC[C@H]2C(N)=O)sc1-c1ccnc(C(C)(C)C(F)(F)F)c1` [alpelisib], the “Feasibility of the combination” value in data set [3] is reported as “not to be feasible due to toxicity”.
With `CCN1CCN(Cc2ccc(Nc3ncc(F)c(-c4cc(F)c5nc(C)n(C(C)C)c5c4)n3)nc2)CC1` [abemaciclib], in data set [4] (Part E Cohort 1, abemaciclib 150 mg Q12H with exemestane + everolimus), the “mean accumulation ratio (based on Cmax)” value is given as 3.16. Besides, the “mean AUC0-tlast” value in data set [4] (Part E Cohort 1, multiple doses abemaciclib 150 mg Q12H with exemestane + everolimus) turned out to be 3280 hr^*ng/mL; in data set [4] (Part E Cohort 1, single dose abemaciclib 150 mg with exemestane + everolimus), 771 hr^*ng/mL; in data set [4] (Part E Cohort 2, single dose abemaciclib 200 mg with exemestane + everolimus) it was 984 hr^*ng/mL; in data set [4] (Part H, single dose abemaciclib 100 mg with trastuzumab and pertuzumab), 343 hr^*ng/mL. The “accumulation ratio based on Cmax” value in data set [4] (Part F, abemaciclib 150 mg Q12H with trastuzumab) stood at 2.13. Further, in data set [4] (Parts E–H), the “Effect on the pharmacokinetics of the combination study drugs” value was “no effect”. In addition, in data set [4] (all combination therapies tested), the “Abemaciclib exposures compared with monotherapy PK data” value is reported as “consistent with monotherapy PK data”. In addition, the Cmax in data set [4] (human, plasma, oral, 100 mg, Part H, single dose abemaciclib 100 mg with trastuzumab and pertuzumab, read-out: mean Cmax) was 71.5 ng/mL; in data set [4] (human, plasma, oral, 150 mg, Part E Cohort 1, multiple doses abemaciclib 150 mg Q12H with exemestane + everolimus, read-out: mean Cmax), 452 ng/mL; in data set [4] (human, plasma, oral, 150 mg, Part E Cohort 1, single dose abemaciclib 150 mg with exemestane + everolimus, plasma, read-out: mean Cmax), 157 ng/mL; in data set [4] (human, plasma, oral, 150 mg, Part F, abemaciclib 150 mg Q12H with trastuzumab, read-out: steady-state mean Cmax), 242 ng/mL; in data set [4] (human, plasma, oral, 200 mg, Part E Cohort 2, single dose abemaciclib 200 mg with exemestane + everolimus, plasma, read-out: mean Cmax), 191 ng/mL; in data set [4] (human, plasma, oral, Part F, single dose abemaciclib (150 mg or 200 mg) with trastuzumab, range over dose cohorts, read-out: mean Cmax) it was 133 to 148 ng/mL. In addition, in data set [4] (human, plasma, oral, Part G, single dose 150 mg abemaciclib with 500 mg fulvestrant and 100 mg or 150 mg LY3023414, range over cohorts, read-out: abemaciclib mean Cmax), the Cmax was in the range of 131 to 139 ng/mL. In data set [4] (human, plasma, oral, Part F, abemaciclib 150 mg Q12H with trastuzumab, read-out: steady-state mean AUC0-tlast), the AUC(0-t) came out at 1660 ng·h/mL. The Progression-free survival result with HER2+ breast cancer was “significantly improved”.
